Laboratory results published in US12246089B2, “Method for treatment of a viral-mediated infectious disease” (Virothera Pharmaceuticals LLC, priority 2020, dated 2025).
Like-named read-outs stand apart in the source and are kept apart here.

Tests used:
[1] = tested on: severe coronavirus disease 2019 patients with coagulopathy; conditions: cited from earlier work
[2] = target: SARS-CoV-2 spike glycoprotein (SGP) (Severe acute respiratory syndrome coronavirus 2, UniProt P0DTC2); conditions: cited from earlier work
[3] = tested on: viruses including COVID-19 viruses; conditions: cited from earlier work
patients with COPD = conditions: cited from earlier work
inhalation injury (IHI) = conditions: nebulized; cited from earlier work
[4] = cited from earlier work
[5] = Encapsulation efficiency and loading capacity of niclosamide by HPLC; conditions: niclosamide in niclosamide, HPLC 333-346 nm
SARS-CoV-2 = conditions: in vitro; cited from earlier work
SARS-CoV = conditions: by interfering with glycosylation of ACE2; cited from earlier work
COVID-19 = conditions: cited from earlier work

For heparin, the mortality ([1]; patients meeting sepsis induced coagulopathy (SIC) criteria ≥4, heparin therapy (vs 64.2%, P=0.029)) is listed as 40.0%, the mortality ([1]; patients with SIC score <4, heparin therapy (vs 22.6%, P=0.419)) is listed as 29.0% and the SGP binding affinity [2] is listed as “high sub-nanomolar affinity”. For the same compound, the “binding affinity to viruses” value [3] was “nanomolar to sub-nanomolar”, the lung function (patients with COPD; inhaled, 21 days of treatment, COPD patients receiving pulmonary rehabilitation) was “significantly improves lung function” and the “safety of inhaled nebulized UFH” value (patients with COPD; patients with moderate to very severe COPD) was “safe”. The “lung function and mortality in IHI” value (inhalation injury (IHI)) was “promotes improvement in lung function and decreased mortality” and the plasma protein binding [4] was “high plasma protein binding”.

With O=C(Nc1ccc([N+](=O)[O-])cc1Cl)c1cc(Cl)ccc1O [niclosamide] the encapsulation efficiency [5] was 90% and the loading capacity [5] was 10.0%.

For CCN(CCO)CCCC(C)Nc1ccnc2cc(Cl)ccc12 (stereo not drawn) [hydroxychloroquine], the “viral copy number of SARS-CoV-2” value (SARS-CoV-2) is given as “effectively reduce the viral copy number”, the “replication of SARS-CoV” value (SARS-CoV) is given as “specifically inhibit the replication of SARS-CoV” and the “clinical benefit of combination with azithromycin” value (COVID-19; 11 patients with severe COVID-19) is given as “no evidence of clinical benefit”. The “effectiveness in COVID-19-associated pneumonia” value (COVID-19; several clinical trials in China) was “to various degree effective” and the “clinical effect in combination with azithromycin” value (COVID-19; small open-label non-randomized clinical trial from France) was “positive effect”.
